{"source": "patent US20150071918A1", "about": "“PEPTIDES FOR THE TREATMENT OF CANCER” (H. LEE MOFFITT CANCER CENTER AND RESEARCH INSTITUTE, INC., priority 2012, published 2015)", "key": {"[1]": {"molecular_target": "T1, full length recombinant human CD44 (Homo sapiens, UniProt P16070)", "T1 construct": "purchased Abnova", "T1 sequence (P16070 21-699 isoform P16070-4 limits assumed)": "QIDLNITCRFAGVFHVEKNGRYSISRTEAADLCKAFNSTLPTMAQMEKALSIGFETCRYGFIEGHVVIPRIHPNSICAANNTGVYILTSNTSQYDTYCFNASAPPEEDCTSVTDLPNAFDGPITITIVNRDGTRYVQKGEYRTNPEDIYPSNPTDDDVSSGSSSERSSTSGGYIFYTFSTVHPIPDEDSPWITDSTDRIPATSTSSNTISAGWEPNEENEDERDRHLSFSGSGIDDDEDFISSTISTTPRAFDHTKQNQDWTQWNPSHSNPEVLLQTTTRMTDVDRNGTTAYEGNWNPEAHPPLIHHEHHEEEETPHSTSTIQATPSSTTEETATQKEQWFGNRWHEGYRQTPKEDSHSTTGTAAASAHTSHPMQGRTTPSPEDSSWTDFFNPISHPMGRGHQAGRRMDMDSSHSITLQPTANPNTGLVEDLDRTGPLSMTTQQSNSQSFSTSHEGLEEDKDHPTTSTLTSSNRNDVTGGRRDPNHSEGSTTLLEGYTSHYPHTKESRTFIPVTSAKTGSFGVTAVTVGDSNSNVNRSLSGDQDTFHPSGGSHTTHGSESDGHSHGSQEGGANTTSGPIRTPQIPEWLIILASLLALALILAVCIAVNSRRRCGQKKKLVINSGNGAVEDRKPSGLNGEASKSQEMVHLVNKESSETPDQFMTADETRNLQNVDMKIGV", "test": "ELISA based binding assay, biotin-HYD1 on NeutrAvidin coated wells", "details": "biotin as control", "text": "FIG. 41. […] A primary CD44 antibody and HRP conjugated secondary antibody and chemiluminescence detection was used to quantify rCD44 binding to immobilized biotin-HYD1.\nFIG. 51. ELISA based binding assay confirms that biotin-HYD1 binds to full length recombinant human CD44 in a concentration dependent manner. Biotin was bound to NeutrAvidin coated wells to control for non-specific binding.\nThe inventors used biotin-HYD1 as bait to pulldown binding complexes contained within membrane extracts of H929 MM cells. The pull down assay was directly coupled with an unbiased Mass-Spec analysis to identify HYD1 binding partners. […] NeutrAvidin beads were used to reduce non-specific binding. […] The inventors next determined whether α4 integrin could be detected by western blot analysis. […] To determine whether […] was indeed a direct binding partner of […] the inventors used recombinant CD44 and an ELISA as a readout of binding. […]\nThe inventors performed a total membrane binding assay with biotin conjugated HYD1 and NeutrAvidin beads on NCI-H929 and U266 MM cells. Samples were then loaded on an SDS-PAGE gel, trypsin digested, and analyzed by Liquid Chromatography-Mass Spectrometry/Mass Spectrometry (LC-MS/MS). […] For more quantitative binding affinity analysis we produced the human globular ectodomain of CD44 comprising of amino acids 20-178. […]"}, "[2]": {"test_system": "CD44 and α4 integrin in membrane extracts", "test": "Pull-down of membrane extract with biotin-conjugated peptide on NeutrAvidin beads, western blot / LC-MS/MS", "type": "binding", "details": "H929 cells, 30 μg membrane extract, western blot pan-CD44 antibody", "experimental": "FIG. 39. […] Thirty micrograms of membrane extract was incubated with either biotin or biotin-HYD1 bound NeutrAvidin beads. The first lane is 30 μg of membrane extract only. CD44 was detected by western blot analysis using a pan-CD44 antibody.\nFIGS. 40A-40B. […] Biotin-HYD1 or biotin was immobilized to NeutraAvidin beads prior to incubation with 150 μg of membrane extract. The blot was initially probed for α4 integrin and subsequently stripped and re-probed with CD44 antibody.\nFIG. 65. […] Total cell membranes were isolated from U937 or HL-60 cells. Membrane lysate (150 μg) was incubated with 500 μg of biotin or biotin-MTI-101 bound to NeutrAvidin beads. […]\nThe inventors used biotin-HYD1 as bait to pulldown binding complexes contained within membrane extracts of H929 MM cells. […] The inventors next determined whether α4 integrin could be detected by western blot analysis. […] To determine whether […] was indeed a direct binding partner of […] the inventors used recombinant CD44 and an ELISA as a readout of binding. […]\nWe performed a total membrane binding assay with biotin conjugated HYD1 and NeutrAvidin beads on NCI-H929 and U266 MM cells. Samples were then loaded on an SDS-PAGE gel and analyzed by LC-MS/MS. The adhesion receptor CD44 was determined to be among the adhesion receptors that had the most peptide match hits and was confirmed as a valid hit via Western Blot analysis. […]"}, "[3]": {"test_system": "H929 myeloma cells", "type": "cell-based, human", "details": "H929 cells", "experimental": "H929 cells were treated for 24 hours with varying concentrations of peptide. Cell death was measured by Topro-3 staining and FACS analysis. The IC50 values were obtained from linear regression analysis and an average value was obtained from 3 independent experiments.\nTable 4 legend: Structure activity relationship in H929 myeloma cells of cyclic INTEGRIN INTERACTION INHIBITORS derivatives. The minimal bioactive core sequence of INTEGRIN INTERACTION INHIBITORS WSVVM (SEQ ID NO:33) was cyclized using 2 novel reduced amide bond beta turn promoters and KLKLK (SEQ ID NO:34) as the non-recognition sequence. H929 cells were treated with varying concentrations of the indicated peptide for 24 h. Cell viability was determined using Topro-3 staining and FACS analysis after drug treatment. IC50 values were generated from linear regressions generated from the dose response curves (n=mean of 3 independent experiments).\nA colony forming assay was used to compare induced cell death in H929 multiple myeloma cells. Cells were treated with integrin interaction inhibitors, shown in FIG. 5 and Table 4, and cell death was measured following 24 hour peptide treatment by TOPRO-3 staining and FACS analysis."}}, "note": "Where a SMILES comes first, the peptide text is derived from it. [ ]: non-standard residue; d: D form. The star is where a group is joined. Biotin = O=C1N[C@H]2[C@H](CS[C@H]2CCCCC(=O)*)N1"}
{"molecule": "CC[C@@H](C)[C@@H](NC(=O)[C@@H](CCCCN)NC(=O)CCCC[C@@H]1SC[C@@H]2NC(=O)N[C@@H]21)C(=O)N[C@H](CCCCN)C(=O)N[C@H](CCSC)C(=O)N[C@@H](C(=O)N[C@@H](C(=O)N[C@H](CO)C(=O)N[C@H](Cc1c[nH]c2ccccc12)C(=O)N[C@H](CCCCN)C(=O)NCC(=O)O)[C@H](C)CC)C(C)C", "note": "[biotin-HYD1] (Biotin-[dK][dI][dK][dM][dV][dI][dS][dW][dK]G-OH; N-terminus and C-terminus assumed)", "values": [{"measurement": "binding to recombinant CD44 in ELISA", "setting": "[1]", "value": "binds recombinant CD44 in a direct ELISA"}, {"measurement": "binding to recombinant CD44 in ELISA", "setting": "[1]; listed as biotin conjugated HYD1", "value": "CD44 bound to biotin conjugated HYD1 in a concentration dependent manner"}, {"measurement": "pull-down of binding partners from H929 membrane extract", "setting": "[2]", "value": "interacts with CD44 in H929 cells"}, {"measurement": "IC50 of biotinylated peptide relative to HYD1", "setting": "[3]", "value": "slightly decreased"}]}
